Test results published in EPA's ToxValDB 9.5 (doi:10.2903/j.efsa.2015.4020).

Tests used:
Rattus norvegicus = settings: for NOAEL: body weight
Hypoaspis aculeifer = settings: chronic/long-term; duration: 28 days
Bibionidae = settings: chronic/long-term; duration: 28 days
Folsomia candida = settings: chronic/long-term; duration: 28 days
Daphnia magna = settings: chronic/long-term; duration: 21 days; reproduction
Neomysis kadiakensis = settings: chronic/long-term; duration: 28 days; mortality
Apis mellifera = settings: acute, mortality
Pimephales promelas = settings: mortality
Oryctolagus sp. = settings: reproduction developmental; body weight
Typhlodromus pyri = assay: LR50; higher = less toxic; settings: not reported; mortality
Aphidius rhopalosiphi = assay: LR50; higher = less toxic; settings: not reported; mortality

## O=C1C=C(N(Cc2ccc(Cl)nc2)CC(F)F)CO1 [Flupyradifurone]
Rattus norvegicus; acute, mortality
  LD50: 1610 mg/kg-day
Rattus norvegicus; chronic
  NOAEL: 6.4 mg/kg-day
Rattus norvegicus; reproduction developmental
  NOAEL: 6.4 mg/kg-day
Hypoaspis aculeifer
  NOEC: 170 mg/kg
Tagia sp.; acute, duration: 14 days, mortality
  LC50: 186 mg/kg
Tagia sp.; chronic/long-term, duration: 56 days
  NOEC: 1.5 mg/kg
Bibionidae
  NOEC: 0.00681 mg/L
Folsomia candida
  NOEC: 1.44 mg/kg
Daphnia magna
  NOEC: 3.2 mg/L
Neomysis kadiakensis
  NOEC: 0.0132 mg/L
Apis mellifera; dermal
  LD50: 123 µg/piece
Apis mellifera; oral, unspecified
  LD50: 1.2 µg/piece
Pimephales promelas; acute, duration: 96 hours
  LC50: > 70.5 µg/mL
Pimephales promelas; chronic/long-term, duration: 35 days
  NOEC: 4.41 mg/L
Colinus virginianus; acute, oral, diet, mortality
  LC50: > 470 mg/kg-day
Colinus virginianus; acute, oral, mortality
  LD50: 232 mg/kg-day
Colinus virginianus; reproduction developmental
  NOAEL: 14 mg/kg-day
Oryctolagus sp.
  NOAEL: 15 mg/kg-day
Typhlodromus pyri
  LR50: 17 g/ha
Aphidius rhopalosiphi
  LR50: < 0.5 g/ha
